The test system of this assay is NCI60. The assay can be described thus: Antitumor activity against human NCI60 cells at 1 uM. It is filed as functional, cell-based.

Active and inactive are the calls of the source. No cut-off for these calls is given here.

For `COc1nc2c(c(=O)n1C)NC1=C(C(=O)c3ccccc31)C(c1ccccc1)N2` (stereo not given), the result was inactive.

Consider `COc1ccc(C2Nc3nc(OC)n(C)c(=O)c3NC3=C2C(=O)c2ccccc23)cc1` (stereo not given), for which the result was inactive.

On to `COc1ccc(C2Nc3nc(SC)[nH]c(=O)c3NC3=C2C(=O)c2ccccc23)cc1` (stereo not given), for which the outcome was inactive.

Consider `COc1ccc(C2Nc3nc(SC)n(C)c(=O)c3NC3=C2C(=O)c2ccccc23)cc1` (stereo not given), for which the outcome was inactive.

For `CSc1nc2c(c(=O)n1C)NC1=C(C(=O)c3ccccc31)C(c1ccccc1)N2` (stereo not given), the result was inactive.
